Data from patent US9150577B2, “Heterocyclic compounds containing an indole core” (Boehringer Ingelheim International GmbH, priority 2009, dated 2015).

Target: Human RSK2 (Homo sapiens (Human), UniProt P51812)
Assay: Human RSK2 assay (Kinase Glo Plus, residual ATP);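 note: recombinant human RSK2 phosphorylating a substrate peptide, 90 min at 28 °C, leftover ATP read by luminescence, RLU scaled between no-kinase background and uninhibited kinase controls, 4-parameter fit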
Assay type: biochemical

Human RSK2, sequence (P51812 whole entry): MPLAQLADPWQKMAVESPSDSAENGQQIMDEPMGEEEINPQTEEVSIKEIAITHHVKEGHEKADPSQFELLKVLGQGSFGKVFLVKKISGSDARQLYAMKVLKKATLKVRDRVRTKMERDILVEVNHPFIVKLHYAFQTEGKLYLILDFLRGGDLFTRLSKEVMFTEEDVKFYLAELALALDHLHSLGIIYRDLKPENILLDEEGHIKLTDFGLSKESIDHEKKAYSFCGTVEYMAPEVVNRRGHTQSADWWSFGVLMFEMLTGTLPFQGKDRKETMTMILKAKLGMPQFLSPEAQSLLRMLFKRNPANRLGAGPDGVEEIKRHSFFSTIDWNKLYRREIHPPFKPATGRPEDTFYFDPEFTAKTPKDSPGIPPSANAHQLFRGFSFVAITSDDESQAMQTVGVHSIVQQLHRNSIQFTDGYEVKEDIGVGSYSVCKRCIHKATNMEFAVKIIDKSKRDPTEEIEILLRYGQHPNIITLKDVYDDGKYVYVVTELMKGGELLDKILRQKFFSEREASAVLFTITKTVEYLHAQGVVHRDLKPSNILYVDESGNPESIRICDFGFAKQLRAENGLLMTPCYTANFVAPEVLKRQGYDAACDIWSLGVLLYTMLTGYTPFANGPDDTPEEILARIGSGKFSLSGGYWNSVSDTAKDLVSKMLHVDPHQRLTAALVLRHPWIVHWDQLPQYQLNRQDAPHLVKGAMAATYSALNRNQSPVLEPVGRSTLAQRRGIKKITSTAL

SMILES | IC50
Cc1cnc(NC(=O)c2ccc3cc4n(c3c2)CCCNC4=O)s1 [Example 106, N-(5-methyl-1,3-thiazol-2-yl)-1-oxo-2,3,4,5-tetrahydro-1H-[1,4]diazepino[1,2-a]indole-8-carboxamide] | 300 nM
Cn1c(-c2ccccc2)cnc1NC(=O)c1ccc2cc3n(c2c1)CCCNC3=O [Example 107, N-(1-methyl-5-phenyl-1H-imidazol-2-yl)-1-oxo-2,3,4,5-tetrahydro-1H-[1,4]diazepino[1,2-a]indole-8-carboxamide] | 500 nM
O=C(Nc1ncc[nH]1)c1ccc2cc3n(c2c1)CCCNC3=O [Example 108, N-(1H-imidazol-2-yl)-1-oxo-2,3,4,5-tetrahydro-1H-[1,4]diazepino[1,2-a]indole-8-carboxamide] | 25.5 nM
Cn1ccnc1NC(=O)c1ccc2cc3n(c2c1)CCCNC3=O [Example 109, N-(1-methyl-1H-imidazol-2-yl)-1-oxo-2,3,4,5-tetrahydro-1H-[1,4]diazepino[1,2-a]indole-8-carboxamide] | 2200 nM
CC(C)(C)c1nnc(NC(=O)c2ccc3cc4n(c3c2)CCCNC4=O)s1 [Example 110, N-(5-tert-butyl-1,3,4-thiadiazol-2-yl)-1-oxo-2,3,4,5-tetrahydro-1H-[1,4]diazepino[1,2-a]indole-8-carboxamide] | 96 nM
CC(C)(C)c1cnc(NC(=O)c2ccc3cc4n(c3c2)CCCNC4=O)o1 [Example 111, N-(5-tert-butyl-1,3-oxazol-2-yl)-1-oxo-2,3,4,5-tetrahydro-1H-[1,4]diazepino[1,2-a]indole-8-carboxamide] | 1800 nM
O=C(Nc1nc2ccccc2o1)c1ccc2cc3n(c2c1)CCCNC3=O [Example 112, N-(1,3-benzoxazol-2-yl)-1-oxo-2,3,4,5-tetrahydro-1H-[1,4]diazepino[1,2-a]indole-8-carboxamide] | 370 nM
O=C(Nc1cnn(CCc2ccccc2)c1)c1ccc2cc3n(c2c1)CCCNC3=O [Example 113, 1-oxo-N-[1-(2-phenylethyl)-1H-pyrazol-4-yl]-2,3,4,5-tetrahydro-1H-[1,4]diazepino[1,2-a]indole-8-carboxamide] | 17 nM
O=C(Nc1cnn(Cc2ccccc2)c1)c1ccc2cc3n(c2c1)CC(F)(F)CNC3=O [Example 115, N-(1-benzyl-1H-pyrazol-4-yl)-4,4-difluoro-1-oxo-2,3,4,5-tetrahydro-1H-[1,4]diazepino[1,2-a]indole-8-carboxamide] | 32 nM
Cn1cc(NC(=O)c2ccc3cc4n(c3c2)CCCNC4=O)ccc1=O [Example 116, N-(1-methyl-6-oxo-1,6-dihydropyridin-3-yl)-1-oxo-2,3,4,5-tetrahydro-1H-[1,4]diazepino[1,2-a]indole-8-carboxamide] | 110 nM
O=C(Nc1nnc(Cc2ccccc2)s1)c1ccc2cc3n(c2c1)CCCNC3=O [Example 117, N-(5-benzyl-1,3,4-thiadiazol-2-yl)-1-oxo-2,3,4,5-tetrahydro-1H-[1,4]diazepino[1,2-a]indole-8-carboxamide] | 98 nM
CS(=O)(=O)c1ccc2c(c1)nc(NC(=O)c1ccc3cc4n(c3c1)CCCNC4=O)n2CC(F)(F)F [Example 118, N-[5-(methylsulfonyl)-1-(2,2,2-trifluoroethyl)-1H-benzimidazol-2-yl]-1-oxo-2,3,4,5-tetrahydro-1H-[1,4]diazepino[1,2-a]indole-8-carboxamide] | 18 nM
CN(C)CCn1cc(NC(=O)c2ccc3cc4n(c3c2)CCCNC4=O)cn1 [Example 119, N-{1-[2-(dimethylamino)ethyl]-1H-pyrazol-4-yl}-1-oxo-2,3,4,5-tetrahydro-1H-[1,4]diazepino[1,2-a]indole-8-carboxamide] | 120 nM
CN(C)c1cccc(Cn2cc(NC(=O)c3ccc4cc5n(c4c3)CCCNC5=O)cn2)c1 [Example 120, N-{1-[3-(dimethylamino)benzyl]-1H-pyrazol-4-yl}-1-oxo-2,3,4,5-tetrahydro-1H-[1,4]diazepino[1,2-a]indole-8-carboxamide] | 3.8 nM
CN(C)CCCn1c(NC(=O)c2ccc3cc4n(c3c2)CC(F)(F)CNC4=O)nc2ccccc21 [Example 121, N-{1-[3-(dimethylamino)propyl]-1H-benzimidazol-2-yl}-4,4-difluoro-1-oxo-2,3,4,5-tetrahydro-1H-[1,4]diazepino[1,2-a]indole-8-carboxamide] | 23 nM
CC1(C)CNC(=O)c2cc3ccc(C(=O)Nc4cnn(Cc5ccccc5)c4)cc3n2C1 [Example 122, N-(1-benzyl-1H-pyrazol-4-yl)-4,4-dimethyl-1-oxo-2,3,4,5-tetrahydro-1H-[1,4]diazepino[1,2-a]indole-8-carboxamide] | 110 nM
O=C(Nc1cccnc1)c1ccc2cc3n(c2c1)CC1(CC1)CNC3=O [Example 123, 1′-oxo-N-(pyridin-3-yl)-2′,3′-dihydro-1′H-spiro[cyclopropane-1,4′-[1,4]diazepino[1,2-a]indole]-8′-carboxamide] | 430 nM

SMILES | IC50
CN(C)CCCn1c(NC(=O)c2ccc3cc4n(c3c2)CC2(CC2)CNC4=O)nc2ccccc21 [Example 124, N-{1-[3-(dimethylamino)propyl]-1H-benzimidazol-2-yl}-1′-oxo-2′,3′-dihydro-1′H-spiro[cyclopropane-1,4′-[1,4]diazepino[1,2-a]indole]-8′-carboxamide] | 9.25 nM
O=C(Nc1cnn(Cc2ccccc2)c1)c1ccc2cc3n(c2c1)CC1(CC1)CNC3=O [Example 125, N-(1-benzyl-1H-pyrazol-4-yl)-1′-oxo-2′,3′-dihydro-1′H-spiro[cyclopropane-1,4′-[1,4]diazepino[1,2-a]indole]-8′-carboxamide] | 11 nM
Cc1cc(NC(=O)c2ccc3cc4n(c3c2)C(C)(C)CNC4=O)no1 [Example 126, 4,4-dimethyl-N-(5-methyl-1,2-oxazol-3-yl)-1-oxo-1,2,3,4-tetrahydropyrazino[1,2-a]indole-7-carboxamide] | 36 nM
Cc1cc(NC(=O)c2ccc3cc4n(c3c2)CC2(CC2)CNC4=O)no1 [Example 127, N-(5-methyl-1,2-oxazol-3-yl)-1′-oxo-2′,3′-dihydro-1′H-spiro[cyclopropane-1,4′-[1,4]diazepino[1,2-a]indole]-8′-carboxamide] | 145 nM
Cc1cc(NC(=O)c2ccc3cc4n(c3c2)[C@H](C)CNC4=O)no1 [Example 128, (4R)-4-methyl-N-(5-methyl-1,2-oxazol-3-yl)-1-oxo-1,2,3,4-tetrahydropyrazino[1,2-a]indole-7-carboxamide] | 6.6 nM
C[C@@H]1CNC(=O)c2cc3ccc(C(=O)Nc4nc5ccccc5n4CCCN(C)C)cc3n21 [Example 129, (4R)-N-{1-[3-(dimethylamino)propyl]-1H-benzimidazol-2-yl}-4-methyl-1-oxo-1,2,3,4-tetrahydropyrazino[1,2-a]indole-7-carboxamide] | 0.7 nM
C[C@@H]1CNC(=O)c2cc3ccc(C(=O)Nc4cnn(Cc5ccccc5)c4)cc3n21 [Example 130, (4R)-N-(1-benzyl-1H-pyrazol-4-yl)-4-methyl-1-oxo-1,2,3,4-tetrahydropyrazino[1,2-a]indole-7-carboxamide] | 0.6 nM
C[C@H]1CNC(=O)c2cc3ccc(C(=O)Nc4nc5ccccc5n4CCCN(C)C)cc3n21 [Example 131, (4S)-N-{1-[3-(dimethylamino)propyl]-1H-benzimidazol-2-yl}-4-methyl-1-oxo-1,2,3,4-tetrahydropyrazino[1,2-a]indole-7-carboxamide] | 15 nM
Cc1cc(NC(=O)c2ccc3cc4n(c3c2)[C@@H](C)CNC4=O)no1 [Example 132, (4S)-4-methyl-N-(5-methyl-1,2-oxazol-3-yl)-1-oxo-1,2,3,4-tetrahydropyrazino[1,2-a]indole-7-carboxamide] | 495 nM
C[C@H]1CNC(=O)c2cc3ccc(C(=O)Nc4cnn(Cc5ccccc5)c4)cc3n21 [Example 133, (4S)-N-(1-benzyl-1H-pyrazol-4-yl)-4-methyl-1-oxo-1,2,3,4-tetrahydropyrazino[1,2-a]indole-7-carboxamide] | 17.5 nM
CC1(C)CNC(=O)c2cc3ccc(C(=O)Nc4cnn(Cc5ccccc5)c4)cc3n21 [Example 134, N-(1-benzyl-1H-pyrazol-4-yl)-4,4-dimethyl-1-oxo-1,2,3,4-tetrahydropyrazino[1,2-a]indole-7-carboxamide] | 1.8 nM
CC1CNC(=O)c2cc3ccc(C(=O)Nc4cnn(Cc5ccccc5)c4)cc3n2C1 (stereo not shown) [Example 135, N-(1-benzyl-1H-pyrazol-4-yl)-4-methyl-1-oxo-2,3,4,5-tetrahydro-1H-[1,4]diazepino[1,2-a]indole-8-carboxamide] | 7.6 nM
C[C@@H]1CNC(=O)c2cc3ccc(C(=O)Nc4cnn(Cc5ccccc5)c4)cc3n2[C@H]1C [Example 137, (4R,5S)-N-(1-benzyl-1H-pyrazol-4-yl)-trans-4,5-dimethyl-1-oxo-2,3,4,5-tetrahydro-1H-[1,4]diazepino[1,2-a]indole-8-carboxamide] | 43.5 nM
O=C(Nc1cnn(Cc2ccccc2)c1)c1ccc2cc3n(c2c1)CC1(CCC1)CNC3=O [Example 138, N-(1-benzyl-1H-pyrazol-4-yl)-1′-oxo-2′,3′-dihydro-1′H-spiro[cyclobutane-1,4′-[1,4]diazepino[1,2-a]indole]-8′-carboxamide] | 26.5 nM
C[C@@H]1NC(=O)c2cc3ccc(C(=O)Nc4nc5ccccc5n4CCCN(C)C)cc3n2[C@@H]1C [Example 139, (3S,4R)-N-{1-[3-(dimethylamino)propyl]-1H-benzimidazol-2-yl}-3,4-dimethyl-1-oxo-1,2,3,4-tetrahydropyrazino[1,2-a]indole-7-carboxamide] | 0.18 nM
C[C@@H]1NC(=O)c2cc3ccc(C(=O)Nc4cnn(Cc5ccccc5)c4)cc3n2[C@@H]1C [Example 140, (3S,4R)-N-(1-benzyl-1H-pyrazol-4-yl)-3,4-dimethyl-1-oxo-1,2,3,4-tetrahydropyrazino[1,2-a]indole-7-carboxamide] | 0.42 nM
C[C@H]1NC(=O)c2cc3ccc(C(=O)Nc4nc5ccccc5n4CCCN(C)C)cc3n2[C@H]1C [Example 141, (3R,4S)-N-{1-[3-(dimethylamino)propyl]-1H-benzimidazol-2-yl}-3,4-dimethyl-1-oxo-1,2,3,4-tetrahydropyrazino[1,2-a]indole-7-carboxamide] | 13.7 nM
